Where two headings read alike, the source gives them in different places.

Experiment [1] concerns the target T1, ICAM-1/LFA-1 interaction (recombinant LFA-1, biotinylated recombinant ICAM-1/Ig) (Homo sapiens, UniProt P20701).
T1 construct: Recombinant LFA-1 (100 mL of 0.7 mg/ml, ICOS Corporation) in D-PBS is then added to each well
Briefly: ICAM-1/LFA-1 Biochemical Interaction Assay (46A). The experiment is classed as binding. How it is done:
Compounds that antagonize the interaction between ICAM-1 and LFA-1 can be identified, and their activities quantitated, using both biochemical and cell-based adhesion assays. A primary biochemical assay, described below as assay 46A, was utilized to measure the ability of the present compounds to block the interaction between the integrin LFA-1 and its adhesion partner ICAM-1.
46A. ICAM-1/LFA-1 Biochemical Interaction Assay
In the biochemical assay, 100 mL of anti-LFA-1 antibody (ICOS Corporation) at a concentration of 5 mg/ml in Dulbecco's phosphate-buffered saline (D-PBS) is used to coat wells of a 96-well microtiter plate overnight at 4° C. The wells are then washed twice with wash buffer (D-PBS w/o Ca^++ or Mg^++, 0.05% Tween 20) and blocked by addition of 200 mL of D-PBS, 5% fish skin gelatin. Recombinant LFA-1 (100 mL of 0.7 mg/ml, ICOS Corporation) in D-PBS is then added to each well. Incubation continues for 1 hour at room temperature and the wells are washed twice with wash buffer. Serial dilutions of compounds being assayed as ICAM-1/LFA-1 antagonists, prepared as 10 mM stock solutions in dimethyl sulfoxide (DMSO), are diluted in D-PBS, 2 mM MgCl2, 1% fish skin gelatin and 50 mL of each dilution added to duplicate wells. This is followed by addition of […] of 0.8 mg/ml biotinylated recombinant ICAM-1/Ig (ICOS Corporation) to the wells and the plates are incubated at room temperature for 1 hour The wells are then washed twice with wash buffer and 100 mL of Europium-labeled Streptavidin (Wallac Oy) diluted 1:100 in Delfia assay buffer (Wallac Oy) are added to the wells. Incubation proceeds for 1 hour at room temperature. […] Incubation proceeds for 5 minutes with constant mixing.
where “background” refers to wells that are not coated with anti-LFA-1 antibody.

Experiment [2] concerns JY-8 cells (expressing LFA-1) adhering to immobilized ICAM-1. Briefly: ICAM-1/JY-8 Cell Adhesion Assay (46B). It counts as cell-based, human. The note with it: Homo sapiens, JY-8 cell adhesion to ICAM-1; for inhibition at 2 µM: @ 2 μM compound (cell). How it is done:
Biologically relevant activity of the compounds in this invention was confirmed using a cell-based adhesion assay, (described below as assay 46B) which measured the ability of the present compounds to block the adherence of JY-8 cells (a human EBV-transformed B cell line expressing LFA-1 on its surface) to immobilized ICAM-1.
46B. ICAM-1 /JY-8 Cell Adhesion Assay
For measurement of inhibitory activity in the cell-based adhesion assay, 96-well microtiter plates are coated with 70 μL of recombinant ICAM-1/g (ICOS Corporation) at a concentration of 5 μg/mL in D-PBS w/o Ca^++ or Mg^++ overnight at 4° C. The wells are then washed twice with D-PBS and blocked by addition of 200 μL of D-PBS, 5% fish skin gelatin by incubation for 1 hour at room temperature. Fluorescent tagged JY-8 cells (a human EBV-transformed B cell line expressing LFA-1 on its surface; 50 μL at 2×10^6 cells/ml in RPMI 1640 (standard cell culture medium)/1% fetal bovine serum) are added to the wells. For fluorescent labeling of JY-8 cells, 5×10^6 cells washed once in RPMI 1640 are resuspended in 1 mL of RPMI 1640 containing 2 μM Calceiun AM (MolecularProbes), are incubated at 37° C for 30 minutes and washed once with RPMI-1640/1% fetal bovine serum. Dilutions of compounds to be assayed for ICAM-1/LFA-1 antagonistic activity are prepared in RPMI-1640/1% fetal bovine serum from 10 mM stock solutions in DMSO and 50 μL are added to duplicate wells. Microtiter plates are incubated for 45 minutes at room temperature and the wells are washed gently once with RPMI-1640/1% fetal bovine serum. Fluorescent intensity is measured in a fluorescent plate reader with an excitation wavelength at 485 nm and an emission wavelength at 530 nm. The percent inhibition of a candidate compound at a given concentration is calculated using the following equation: [formula]
and these concentration/inhibition data are used to generate dose response curves, from which IC50 values are derived.

The mark [3] stands for this setting: @ 2 μM compound, read-out: % inhibition.

T1 sequence (P20701 26-1170): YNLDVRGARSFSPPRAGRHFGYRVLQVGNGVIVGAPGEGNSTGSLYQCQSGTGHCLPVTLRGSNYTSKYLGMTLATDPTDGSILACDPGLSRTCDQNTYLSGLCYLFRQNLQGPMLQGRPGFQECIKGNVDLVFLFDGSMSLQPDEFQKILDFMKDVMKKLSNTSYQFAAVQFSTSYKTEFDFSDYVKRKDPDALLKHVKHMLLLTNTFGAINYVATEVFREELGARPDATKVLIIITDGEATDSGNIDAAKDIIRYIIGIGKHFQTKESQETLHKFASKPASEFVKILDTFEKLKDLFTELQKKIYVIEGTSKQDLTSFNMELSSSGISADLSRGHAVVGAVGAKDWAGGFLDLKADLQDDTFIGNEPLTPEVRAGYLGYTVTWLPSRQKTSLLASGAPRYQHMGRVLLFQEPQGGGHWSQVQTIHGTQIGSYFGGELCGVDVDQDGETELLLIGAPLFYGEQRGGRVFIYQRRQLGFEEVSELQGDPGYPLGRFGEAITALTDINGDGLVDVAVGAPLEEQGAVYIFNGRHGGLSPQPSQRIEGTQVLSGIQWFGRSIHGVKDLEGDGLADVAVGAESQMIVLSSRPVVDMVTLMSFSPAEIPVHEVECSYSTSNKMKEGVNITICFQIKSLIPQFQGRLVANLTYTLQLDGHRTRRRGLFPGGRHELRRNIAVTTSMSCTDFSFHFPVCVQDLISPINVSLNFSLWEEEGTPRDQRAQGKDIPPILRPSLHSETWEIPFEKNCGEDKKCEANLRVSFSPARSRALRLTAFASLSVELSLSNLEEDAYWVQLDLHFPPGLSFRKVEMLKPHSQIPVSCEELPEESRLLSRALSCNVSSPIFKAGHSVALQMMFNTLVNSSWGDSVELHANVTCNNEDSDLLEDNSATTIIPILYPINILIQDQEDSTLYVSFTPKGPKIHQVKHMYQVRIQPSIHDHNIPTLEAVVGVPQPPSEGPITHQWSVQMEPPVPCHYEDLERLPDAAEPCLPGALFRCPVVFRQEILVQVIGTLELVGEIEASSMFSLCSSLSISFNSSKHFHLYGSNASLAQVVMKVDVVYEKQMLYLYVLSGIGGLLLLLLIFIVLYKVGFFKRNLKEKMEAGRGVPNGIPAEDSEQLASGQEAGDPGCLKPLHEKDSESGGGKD
T1 sequence (P05107 23-769 partner): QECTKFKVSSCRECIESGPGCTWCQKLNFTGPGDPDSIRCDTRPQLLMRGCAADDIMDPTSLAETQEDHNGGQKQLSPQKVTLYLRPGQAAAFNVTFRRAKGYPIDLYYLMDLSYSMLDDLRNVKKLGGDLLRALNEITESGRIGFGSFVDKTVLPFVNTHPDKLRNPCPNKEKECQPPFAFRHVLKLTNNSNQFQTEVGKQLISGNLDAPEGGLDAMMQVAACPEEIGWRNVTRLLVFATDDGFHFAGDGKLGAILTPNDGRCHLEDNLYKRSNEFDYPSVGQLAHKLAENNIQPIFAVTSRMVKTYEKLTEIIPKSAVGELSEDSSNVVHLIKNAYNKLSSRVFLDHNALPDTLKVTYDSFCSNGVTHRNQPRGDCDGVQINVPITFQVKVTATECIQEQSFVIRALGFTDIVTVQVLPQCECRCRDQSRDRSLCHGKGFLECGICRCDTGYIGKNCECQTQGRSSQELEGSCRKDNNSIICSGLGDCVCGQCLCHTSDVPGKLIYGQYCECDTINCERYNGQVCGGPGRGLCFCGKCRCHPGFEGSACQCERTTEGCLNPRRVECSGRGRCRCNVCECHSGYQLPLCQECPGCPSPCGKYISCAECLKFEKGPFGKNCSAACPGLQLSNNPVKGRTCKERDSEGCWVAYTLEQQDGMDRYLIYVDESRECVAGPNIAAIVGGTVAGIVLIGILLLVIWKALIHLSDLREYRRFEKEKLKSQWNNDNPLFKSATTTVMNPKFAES

Usually inhibition stands for the percentage by which the read-out fell short of the control. For `O=C(O)C1CCCN(c2ccccc2Sc2ccc(C3CC3C(=O)NCCCN3CCCC3=O)cc2C(F)(F)F)C1` (mixture of isomers) [Example 6, (±)-(2-(2-carboxyethyl)phenyl)[2-trifluoromethyl-4-(trans-(2-((3-(1-pyrrolidin-2-onyl)-prop-1-ylamino)carbonyl)cycloprop-1-yl)phenyl]sulfide], in experiment [1] (@ 2 μM compound), the inhibition at 2 µM worked out at 93%.
For the molecule `COc1ccccc1Sc1ccc(C2CC2C(=O)NCC(=O)O)c(Cl)c1Cl` (mixture of isomers) [Example 12], the inhibition at 4 µM in experiment [1] (@ 4 μM compound) was 93%.
As to `COc1ccccc1Sc1ccc(C2CC2C(=O)NCCC(=O)O)c(Cl)c1Cl` (mixture of isomers) [Example 13], in experiment [1] (@ 4 μM compound), the inhibition at 4 µM was determined as 95%.
Still for that read-out and setting: to `O=C(NCCCN1CCCC1=O)C1CC1c1ccc(Sc2ccccc2Br)c(C(F)(F)F)c1` (racemic) [Example 1, (±)-(2-Bromophenyl)[2-trifluoromethyl-4-(trans-(2-((3-(1-pyrrolidin-2-onyl)-prop-1-ylamino)carbonyl)cycloprop-1-yl)phenyl]sulfide] belongs 92%.
On to `CC(C)c1ccccc1Sc1ccc(C2CC2C(=O)NCC(=O)O)c(Cl)c1Cl` (racemic) [Example 2, (±)-(2-Isopropylphenyl)[2,3-dichloro-4-(trans-(carboxymethylamino)carbonyl)cycloprop-1-yl)phenyl]sulfide], for which, in experiment [1] (setting [3]), the inhibition at 2 µM is 95%.
As to `CC(C)c1ccccc1Sc1ccc(C2CC2C(=O)N2CCCC(C(=O)O)C2)c(Cl)c1Cl` (racemic) [Example 3, (±)-(2-Isopropylphenyl)[2,3-dichloro-4-(trans-(2-(3-carboxypiperidine))carbonyl)cycloprop-1-yl)phenyl]sulfide], testing at 2 µM in experiment [2] gave an inhibition of 90%.
The molecule `O=C(NCCCN1CCCC1=O)C1CC1c1ccc(Sc2ccccc2N2CCOCC2)c(C(F)(F)F)c1` (racemic) [Example 7, (±)-(2-Morpholin-1-ylphenyl)[2-trifluoromethyl-4-(trans-(2-((3-(1-pyrrolidin-2-onyl)-prop-1-ylamino)carbonyl)cycloprop-1-yl)phenyl]sulfide] yielded an inhibition at 1 µM in experiment [2] (@ 1 μM compound (cell)) of 84%.
With `O=C(NCCCN1CCCC1=O)C1CC1c1ccc(Sc2ccccc2N2CCCC2)c(C(F)(F)F)c1` (racemic) [Example 10, (±)-(2-Pyrrolidin-1-ylphenyl)[2-trifluoromethyl-4-(trans-(2-((3-(1-pyrrolidin-2-onyl)-prop-1-ylamino)carbonyl)cycloprop-1-yl)phenyl]sulfide], in experiment [2] (@ 4 μM compound), the inhibition at 4 µM is 72%.
With `O=C(NCCCN1CCCC1=O)C1CC1c1ccc(Sc2cccc(N3CCOCC3)c2)c(C(F)(F)F)c1` (racemic) [Example 11, (±)-(3-Morpholin-1-ylphenyl)[2-trifluoromethyl-4-(trans-(2-((3-(1-pyrrolidin-2-onyl)-prop-1-ylamino)carbonyl)cycloprop-1-yl)phenyl]sulfide], in experiment [1] (@ 4 μM compound), the inhibition at 4 µM was 44%.
Turning to `O=C(O)C1CC1c1ccc(Sc2ccccc2N2CCOCC2)c(Cl)c1Cl` (racemic) [Example 12, (±)-(2-Morpholin-1-ylphenyl)[2,3-dichloro-4-(trans-(2-carboxycycloprop-1-yl)phenyl]sulfide], the inhibition at 4 µM in experiment [1] (@ 4 μM compound) came to 91%.
As for `O=C(O)C1CC1c1ccc(Sc2ccccc2Br)c(Cl)c1Cl` (racemic) [Example 15, (±)-(2-Bromophenyl)[2,3-dichloro-4-(trans-(2-carboxycycloprop-1-yl)phenyl]sulfide], in experiment [1] (@ 4 μM compound), the inhibition at 4 µM worked out at 88%.
Molecule `CC(C)c1ccccc1Sc1ccc(C2CC2C(=O)NCCCC(=O)O)c(Cl)c1Cl` (racemic) [Example 17, (±)-(2-Isopropylphenyl)[2,3-dichloro-4-(trans-(2-(3-carboxypropylamino)carbonyl)cycloprop-1-yl)phenyl]sulfide] came in with an inhibition at 2 µM in experiment [2] of 86%.
With `CC(C)c1ccccc1Sc1ccc([C@@H]2C[C@H]2C(=O)N2CCCCC2C(=O)O)c(Cl)c1Cl` (mixture of isomers) [Example 19, (±)-(2-Isopropylphenyl)[2,3-dichloro-4-(trans-(2-(2-carboxypiperidin-1-yl)carbonyl)cycloprop-1-yl)phenyl]sulfide], the “% inhibition” value in experiment [1] (@ 4 μM compound) stood at 96% @ 4 μM.
As for `CC(C)c1ccccc1Sc1ccc(C2CC2C(=O)N2CCOCC2)c(Cl)c1Cl` (racemic) [Example 20, (±)-(2-Isopropylphenyl)[2,3-dichloro-4-(trans-(2-(morpholin-1-yl)carbonyl)cycloprop-1-yl)phenyl]sulfide], the inhibition at 2 µM in experiment [1] (setting [3]) was determined as 96%.
In experiment [2], `CC(C)c1ccccc1Sc1ccc(C2CC2C(=O)NCCCN2CCCC2=O)c(Cl)c1Cl` (racemic) [Example 22, (±)-(2-Isopropylphenyl)[2,3-dichloro-4-(trans-(2-((3-(1-pyrrolidin-2-onyl)-prop-1-ylamino)carbonyl)cycloprop-1-yl)phenyl]sulfide] displayed an inhibition at 2 µM of 92%.
For the molecule `CC(C)c1ccccc1Sc1ccc([C@@H]2C[C@H]2C(=O)NC2CCC2)c(Cl)c1Cl` (racemic) [Example 24, (±)-(2-Isopropylphenyl)[2,3-dichloro-4-(trans-2-(cyclobutylaminocarbonyl)cycloprop-1-yl)phenyl]sulfide], the inhibition at 2 µM in experiment [1] (setting [3]) was found to be 94%.
As for `CC(C)c1ccccc1Sc1ccc(C2CC2C(=O)N2CCC2)c(Cl)c1Cl` (racemic) [Example 25, (±)-(2-Isopropylphenyl)[2,3-dichloro-4-(trans-(2-(azetidin-1-yl)carbonyl)cycloprop-1-yl)phenyl]sulfide], in experiment [1] (setting [3]), the inhibition at 2 µM worked out at 95%.
In the case of `O=C(NCCCN1CCCC1=O)[C@@H]1C[C@H]1c1ccc(Sc2ccccc2Br)c(C(F)(F)F)c1` (relative stereo) [Example 4], the “% inhibition” value in experiment [1] (@ 2 μM compound, 2 µM) turned out to be 81% @ 2 μM.
Consider `O=C(NCCCN1CCCC1=O)[C@@H]1C[C@H]1c1ccc(Sc2ccccc2Br)c(C(F)(F)F)c1` (relative stereo) [Example 5], for which the “% inhibition” value in experiment [1] (@ 2 μM compound, 2 µM) amounted to 94% @ 2 μM.
For “(±)-(2-Bromophenyl)[2-trifluoromethyl-4-(trans-(2-((3-(1-pyrrolidin-2-onyl)-prop-1-ylamino)carbonyl)cycloprop-1-yl)phenyl]sulfide [Example 1]”, the “% inhibition” value in experiment [1] (@ 2 μM compound) is 96% @ 2 μM.
Turning to “(±)-(2-Isopropylphenyl)[2,3-dichloro-4-(trans-2-(cyclobutylaminocarbonyl)cycloprop-1-yl)phenyl]sulfide [Example 24]”, the “% inhibition” value in experiment [1] (@ 4 μM compound) was 96% @ 4 μM.
For the molecule “(±)-(2-Isopropylphenyl)[2,3-dichloro-4-(trans-(2-(4-acetylpiperazin-1-yl)carbonyl)cycloprop-1-yl)phenyl]sulfide [Example 21]”, the “% inhibition” value in experiment [1] (@ 4 μM compound) amounted to 96% @ 4 μM.
Consider “(±)-(2-Isopropylphenyl)[2,3-dichloro-4-(trans-(2-(4-carboxypiperidin-1-yl)carbonyl)cycloprop-1-yl)phenyl]sulfide [Example 18]”, for which the “% inhibition” value in experiment [1] (@ 4 μM compound) came out at 94% @ 4 μM.
“(±)-(2-Isopropylphenyl)[2,3-dichloro-4-(trans-(2-(morpholin-1-yl)carbonyl)cycloprop-1-yl)phenyl]sulfide [Example 20]”: in experiment [1] (@ 4 μM compound), the “% inhibition” value came to 96% @ 4 μM.
